This note sets out measurements from ChEMBL document CHEMBL1268970, “Development of novel inhibitors targeting HIF-1α towards anticancer drug discovery” (Bioorg Med Chem Lett, 2010).

Each structure is given as a SMILES string. pIC50: −log10 of the molar value. The source made the active and inactive calls. The rule behind the calls is not given here. Where only a bound is given, the exact number is not on record here.

Data set [1] concerns the target T1, Hypoxia-inducible factor 1-alpha (Homo sapiens, UniProt Q16665). The data set can be described thus: Inhibition of HIF1alpha in human U251 cells under hypoxic condition by luciferase reporter gene assay. Format: cell-based, U-251.
Target sequence in this assay (Q16665 whole entry): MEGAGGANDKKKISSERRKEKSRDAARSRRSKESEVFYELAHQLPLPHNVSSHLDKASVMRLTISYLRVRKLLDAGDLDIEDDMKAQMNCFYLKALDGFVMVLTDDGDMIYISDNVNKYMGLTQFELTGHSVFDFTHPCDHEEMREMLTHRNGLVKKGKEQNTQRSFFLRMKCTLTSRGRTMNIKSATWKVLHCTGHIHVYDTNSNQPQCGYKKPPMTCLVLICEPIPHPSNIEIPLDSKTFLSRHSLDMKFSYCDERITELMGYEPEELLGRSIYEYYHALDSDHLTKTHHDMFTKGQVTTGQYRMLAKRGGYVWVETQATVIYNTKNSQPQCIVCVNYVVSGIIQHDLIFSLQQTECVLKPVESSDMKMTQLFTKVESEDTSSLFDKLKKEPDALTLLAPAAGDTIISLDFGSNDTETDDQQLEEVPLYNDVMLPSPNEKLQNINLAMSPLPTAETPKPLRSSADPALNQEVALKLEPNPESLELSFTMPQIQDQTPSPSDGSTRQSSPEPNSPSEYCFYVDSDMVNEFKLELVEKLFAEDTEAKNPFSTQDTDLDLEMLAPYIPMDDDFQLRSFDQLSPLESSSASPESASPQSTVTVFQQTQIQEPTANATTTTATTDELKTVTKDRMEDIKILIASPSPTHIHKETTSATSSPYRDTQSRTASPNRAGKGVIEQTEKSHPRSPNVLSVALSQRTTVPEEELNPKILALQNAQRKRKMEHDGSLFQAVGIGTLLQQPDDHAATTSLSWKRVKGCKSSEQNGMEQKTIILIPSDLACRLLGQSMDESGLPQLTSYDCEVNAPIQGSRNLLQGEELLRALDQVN
Data set [2] addresses T1, Hypoxia-inducible factor 1-alpha. The data set can be described thus: Inhibition of HIF1alpha in human U251 cells under normoxic condition by luciferase reporter gene assay. The class given is cell-based, U-251.
Target sequence in this assay (Q16665 whole entry): as above
For data set [3], the system named is U-251. Kind of data set: Antiproliferative activity against human U251 cells by [3H]thymidine incorporation assay. The class given is functional, cell-based.
For the next data set, the system named is DU-145. The data set can be described thus: Antiproliferative activity against human DU145 cells by [3H]thymidine incorporation assay. The class given is functional, cell-based.
The subject of data set [4] is PC-3. Kind of data set: Antiproliferative activity against human PC3 cells by [3H]thymidine incorporation assay. Format: functional, cell-based.
Another data set has as its system HCT-116. The data set can be described thus: Antiproliferative activity against human HCT116 cells by [3H]thymidine incorporation assay. The class given is functional, cell-based.
A further data set deals with MRC5. The data set can be described thus: Antiproliferative activity against human MRC5 cells by [3H]thymidine incorporation assay. The class given is cell-based.
In another data set the test system is OVCAR-3. The data set can be described thus: Antiproliferative activity against human OVCAR-3 cells by [3H]thymidine incorporation assay. Format: functional, cell-based. The settings on record: OVCAR-3, 3 h.
The subject of the next data set is Mus musculus. Kind of data set: Toxicity in SCID mouse xenografted with human PC3 cells assessed as weight loss at 50 mg/kg, po BID for 19 days measured on day 25. Further details: dose 50 mg/kg, route oral. The settings on record: in vivo, 456 h. The class given is organism-based, PC-3.
Data set [5] deals with PC-3. The data set can be described thus: Inhibition of HIF1alpha expression in human PC3 cells by Western blot analysis. Format: functional, cell-based.
Data set [6] concerns PC-3. The data set can be described thus: Antitumor activity against human PC3 cells xenografted in SCID mouse assessed as tumor growth inhibition at 50 mg/kg, po BID for 19 days measured on day 20. Format: functional, organism-based. Further details: dose 50 mg/kg.
The subject of data set [7] is U-251. The data set can be described thus: Inhibition of HIF1alpha expression in human U251 cells by Western blot analysis. The class given is functional, cell-based.
The next data set deals with PANC-1. The data set can be described thus: Antiproliferative activity against human PANC1 cells by [3H]thymidine incorporation assay. The class given is functional, cell-based.
The next data set relates to HUVEC. Kind of data set: Antiangiogenic activity in HUVEC assessed as inhibition of tube formation. Format: functional, cell-based. The settings on record: Homo sapiens.
Data set [8] deals with T1, Hypoxia-inducible factor 1-alpha. Kind of data set: Inhibition of HIF1-alpha-mediated VEGF mRNA expression in human PC3 cells under hypoxic condition by RT-PCR analysis. The class given is cell-based. The settings on record: PC-3.
Target sequence in this assay (Q16665 whole entry, looked up): as the sequence (Q16665 whole entry) above
A short description of data set [9]: Antiproliferative activity against human WI38 cells by [3H]thymidine incorporation assay. The note with it: WI-38. Format: cell-based.

With `O=C(Nc1ccc(-c2nc(O)cc(C(F)(F)F)n2)nc1)C(F)(F)Cl`, in [1], the pIC50 was less than 4.52.
As for `C=CCOc1nc(-c2ccc(NC(=O)CCl)cn2)nc(C)c1Cl`, the pIC50 in [2] is 5.10; in data set [1] it was 5.82.
On to `Cc1nc(-c2ccc(N)cn2)nc(O)c1Cl`, for which the pIC50 in data set [1] is less than 4.52.
Regarding `C=CCOc1nc(-c2ccc(NC(=O)CCl)cn2)nc(C)c1CC`, the pIC50 in data set [2] is 4.66; in data set [1], 5.74.
`CCOc1cc(C(F)(F)F)nc(-c2ccc(N)cn2)n1`: the negative logarithm of the IC50 (pIC50) in data set [1] is less than 4.52.
Same read-out and setting: the figure for `Nc1ccc(-c2nc(O)cc(C(F)(F)F)n2)nc1` is less than 4.52.
Take `CC[C@@]1(O)C(=O)OCc2c1cc1n(c2=O)Cc2cc3c(CN(C)C)c(O)ccc3nc2-1` [TOPOTECAN]: the pIC50 was 6.30 with U-251 [3], 5.92 in the data set with DU-145 and 6.00 with PC-3 [4].
Turning to `O=C(CCl)Nc1ccc(-c2nc(Cl)cc(C(F)(F)F)n2)nc1`, the pIC50 in data set [2] was 5.00; in data set [1] it was 5.85.
Compound `C=CCOc1cc(C(F)(F)F)nc(-c2ccc(N)cn2)n1` had a pIC50 in data set [1] of less than 4.52.
On the same count and under the same terms, the figure for `Cc1nc(-c2ccc(N)cn2)nc(O)c1C` is less than 4.52.
On to `O=C(CCl)Nc1ccc(-c2nc(O)cc(CCl)n2)nc1`, for which the pIC50 was 5.26 in [2] and 5.82 in data set [1].
The compound `C=CCOc1nc(-c2ccc(N)cn2)nc(C)c1Cl` had a pIC50 in [1] of less than 4.52.
Still for that read-out and setting: the value for `Cc1nc(-c2ccc(NC(=O)CCl)cn2)[nH]c(=O)c1Cl` was 5.26.
The same measure, in the same setting: the figure for `CCOc1cc(C(F)(F)F)nc(-c2ccc(NC(=O)CCl)cn2)n1` is 5.10.
As for `C=CCOc1cc(C(F)(F)F)nc(-c2ccc(NC(=O)CCl)cn2)n1`, the pIC50 in [2] is 4.52; in data set [1], 5.70.
In [1], `CCc1c(C)nc(-c2ccc(N)cn2)nc1O` had a pIC50 of less than 4.52.
For `O=C(CCl)Nc1ccc(-c2nc(O)cc(C(F)(F)F)n2)nc1`, the negative-log IC50 (pIC50) in data set [2] was 5.10; in the data set on HCT-116, 6.10; in the data set on MRC5, less than 5.00; in the data set with OVCAR-3, 5.46; in the data set on U-251 [3], 5.82; with PANC-1, 5.70. Moreover, the pIC50 was 5.92 in the data set with DU-145, 6.00 in the data set with PC-3 [4], 6.10 in data set [1] and 5.19 in [9]. The Activity entry with Mus musculus is recorded as “Non-toxic”. The inhibition entry (in the data set on PC-3 [5]; in the data set with U-251 [7]; in the data set on HUVEC; in [8]) was “Dose-dependent effect” throughout. In the data set with PC-3 [6], the “growth inhibition (GI)” value was “Active”.
In the case of `Cc1nc(-c2ccc(N)cn2)nc(O)c1F`, the pIC50 in data set [1] was less than 4.52.
For the compound `CCc1c(C)nc(-c2ccc(NC(=O)CCl)cn2)nc1O`, the pIC50 in [2] was 5.26; in data set [1], 5.82.
The corresponding values for `Cc1nc(-c2ccc(NC(=O)CCl)cn2)[nH]c(=O)c1F` are 5.22 and 5.70.
The corresponding values for `COc1cc(C(F)(F)F)nc(-c2ccc(NC(=O)CCl)cn2)n1` are 4.82 and 5.46.
`Cc1nc(-c2ccc(NC(=O)CCl)cn2)nc(O)c1Cc1ccccc1`: the negative-log IC50 (pIC50) is 5.00 in data set [2] and 5.40 in data set [1].
Turning to `Nc1ccc(-c2nc(O)cc(CCl)n2)nc1`, the pIC50 in data set [2] was 4.66; in data set [1] it was 5.22.
In data set [1], `COc1cc(C(F)(F)F)nc(-c2ccc(N)cn2)n1` had a pIC50 of less than 4.52.
Turning to `Cc1nc(-c2ccc(NC(=O)CCl)cn2)nc(O)c1C`, the pIC50 in data set [1] was less than 4.52.
Take `Cc1nc(-c2ccc(N)cn2)nc(O)c1Cc1ccccc1`: in [1], the pIC50 was less than 4.52.
Still for that read-out and setting: the figure for `C=CCOc1nc(-c2ccc(N)cn2)nc(C)c1CC` is less than 4.52.
